Assay results reported in article PMC3960879 (Biology, 2013).
Where two headings read alike, the source gives them in different places.

Columns and labels:
[1] = biological target: F17fG receptor-binding domain (Escherichia coli, UniProt Q9RH91); test: Surface plasmon resonance steady-state affinity, immobilized F17fG
Method: (§1) The affinity profiles were determined by surface plasmon resonance (SPR) measurements using a BiaCore 3000 instrument (GE Healthcare). […] The proteins were covalently immobilized on CM5 sensor chips (Biacore AB) to an average density of 2000 RU (resonance units in pg/mm^2). On each chip, one flow cell was coated with a camel single domain antibody for use as a reference cell. The other three flow cells (Fc2, Fc3 and Fc4) were coated with three different F17G variants. Carbohydrate concentrations ranging from 10 µM to 10 mM in running buffer (20 mM Hepes, pH 7.4; 150 mM NaCl; 3 mM EDTA and 0.005% surfactant Tween 20) were incubated for one minute on all flow cells simultaneously, at 25 °C and at a flow rate of 30 µL/min. Complete dissociation of the carbohydrates in running buffer was verified before starting a new binding cycle. All binding cycles were performed in duplicate, including a zero concentration cycle (injection of pure running buffer). All analysis was done using the BIAeval software. In each case the equilibrium resonance signal from the reference cell was subtracted from that of the various F17G flow cells (2-1, 3-1, 4-1). A Langmuir binding isotherm with a 1:1 stoichiometry was fitted to the data, from which the equilibrium dissociation constants, Kd, were obtained.

[2] = biological target: T1, F17aG receptor-binding domain (Escherichia coli, UniProt Q99003); test: biochemical; settings: SPR steady state, 25 °C, pH 7.4
T1 construct: variants of the lectin domains with oligolysine (4Lys) tails have been constructed; made in house; host or cells: E. coli (periplasm)
T1 sequence (Q99003 23-199): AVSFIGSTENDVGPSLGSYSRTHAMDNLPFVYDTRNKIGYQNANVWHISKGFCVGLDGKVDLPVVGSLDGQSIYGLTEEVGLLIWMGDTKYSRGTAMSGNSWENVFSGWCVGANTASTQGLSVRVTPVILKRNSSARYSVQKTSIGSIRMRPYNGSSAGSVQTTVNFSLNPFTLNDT
Method: as §1

[3] = biological target: F17eG receptor-binding domain; test: Surface plasmon resonance steady-state affinity, immobilized F17eG; set-up: species or system Escherichia coli; settings: SPR steady state, 25 °C, pH 7.4
Method: as §1

[4] = test system: F17eG lectin domain; test: CFG mammalian printed glycan array version 2 (experiment 400), F17eG; type: binding, Escherichia coli; settings: CFG glycan array version 2; F17G at 200 µg/mL; SEM in parentheses
From the text: (§2) The slide was dried under a stream of nitrogen.

[5] = biological target: F17dG lectin domain (Escherichia coli, UniProt Q47199); settings: CFG glycan array version 2; F17G at 200 µg/mL; SEM in parentheses
Chain of F17dG lectin domain (Q47199 23-199): as the sequence (Q99003 23-199) above, with L16P, D33N, R35G, K37N, H47R, K90N counted along it
Method: (§3) A microarray presenting 264 different glycans (mammalian printed array version 2) was used to evaluate if the F17G variant lectin domains differ in the range of glycan receptors that they recognize, thereby establishing tropism. The microarray was set up within the Consortium for Functional Glycomics (CFG) ([20], and supplemental data). Binding of F17G (200 µg/mL) was detected using anti-F17G polyclonal rabbit IgG (10 µg/mL), followed by fluorescently labelled goat anti-rabbit polyclonal antibodies (IgG-488, 5 µg/mL).
(§4) A microarray presenting 264 different glycans (mammalian printed array version 2 from the CFG, experiment 400) was used to evaluate whether the F17G variant lectin domains differ in the range of glycan receptors that they can recognize, thereby establishing strain-dependent tropism. […] The glycan array screening has been repeated for F17aG only on printed array version 4.1 (experiment 2053) (Figure 1).
(§5) Printed array version 2 at the Consortium for Functional Glycomics was used for glycan array screening of the variant F17G receptor binding domains. Slides were printed, with six replicates for each glycan, using glycan spotting concentrations of 100 μM, at the Consortium Carbohydrate Synthesis/Protein Expression Core D located at the Scripps Research Institute onto Schott Nexterion H slides (Schott Cat. No. 1070936B). Slide conditioning: preprinted slides were soaked in deionized water for 5 minutes at room temperature and dried under a stream of nitrogen. TSM buffer (20 mM Tris-HCl, pH 7.4, or MOPS 20 mM; 150 mM NaCl; 2 mM CaCl2, 2 mM MgCl2) was used as wash buffer (TSM buffer + 0.05% Tween 20) or binding buffer (TSM buffer + 0.05% Tween 20 + 1% BSA). (1) F17G was diluted to 200 μg/mL (Figure 1) in TSM binding buffer. (2) 50 μL of F17G was applied to the printed surface and coverslipped. (3) The slide was incubated, protected from light, in a humidified chamber for 1 hour at RT. (4) The slide was washed once in TSM wash buffer. 50 μL of the anti-F17G (10 μg/mL) polyclonal rabbit IgG were applied, coverslipped and incubated for 1 h at RT. (5) The slide was washed once in TSM wash buffer. Fifty μL of fluorescently labelled secondary goat anti-rabbit polyclonal antibodies (IgG-488, 5 µg/mL) were applied, coverslipped and incubated for 1 h at RT. (6) Slide was removed, followed by the coverslip, and washed for 10 s each in TSM wash buffer, TSM wash buffer lacking Tween 20, and deionized water. The slide was dried under a stream of nitrogen. (7) The binding image was read in a Perkin Elmer Microscanarray XL4000 scanner and tiff file of image stored. (8) Image analysis was performed using Imagene (V.6) image analysis software. (9) Raw data results files were generated in Excel format and uploaded to the Consortium database as .dat files. (10) Imagene data was uploaded to the database as .txt files.

[6] = biological target: F17bG lectin domain (Escherichia coli, UniProt Q47200); settings: CFG glycan array version 2; F17G at 200 µg/mL; SEM in parentheses
Chain of F17bG lectin domain (Q47200 23-199): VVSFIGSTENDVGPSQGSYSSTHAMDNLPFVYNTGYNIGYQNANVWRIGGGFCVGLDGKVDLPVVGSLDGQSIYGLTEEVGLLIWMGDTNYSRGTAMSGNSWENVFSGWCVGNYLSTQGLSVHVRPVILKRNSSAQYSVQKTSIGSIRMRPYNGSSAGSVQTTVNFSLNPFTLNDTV
Method: as §3, §4, §5

[7] = biological target: F17aG lectin domain (Escherichia coli, UniProt Q99003); settings: CFG glycan array version 2; F17G at 200 µg/mL; SEM in parentheses
Chain of F17aG lectin domain (Q99003 23-199): as the sequence (Q99003 23-199) above
Method: as §3, §4, §5

[8] = test system: F17fG lectin domain; test: CFG mammalian printed glycan array version 2 (experiment 400), F17fG; type: binding, Escherichia coli; settings: CFG glycan array version 2; F17G at 200 µg/mL; SEM in parentheses
From the text: as §2

[9] = Affinity range (Kd class), F17aG
[10] = good fit for at least three related experiments, read-out: dissociation constant Kd, F17eG
[11] = read-out: Affinity range (Kd class), F17eG
[12] = good fit for at least three related experiments, read-out: dissociation constant Kd, F17aG
[13] = read-out: Affinity range (Kd class), F17aG
[14] = SPR steady state, 25 °C, pH 7.4, read-out: Affinity range (Kd class), F17fG

Chain of F17fG receptor-binding domain (Q9RH91 23-198): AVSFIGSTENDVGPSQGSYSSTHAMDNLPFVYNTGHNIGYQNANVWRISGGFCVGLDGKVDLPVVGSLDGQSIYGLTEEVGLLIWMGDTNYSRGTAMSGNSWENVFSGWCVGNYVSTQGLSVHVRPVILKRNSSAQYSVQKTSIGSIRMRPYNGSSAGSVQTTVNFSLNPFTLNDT

Row | Molecule | Relative Fluorescence Units (RFU), averaged over six replicates, F17eG [4] | Relative Fluorescence Units (RFU), averaged over six replicates, F17dG [5] | Relative Fluorescence Units (RFU), averaged over six replicates, F17bG [6] | Relative Fluorescence Units (RFU), averaged over six replicates, F17aG [7] | Relative Fluorescence Units (RFU), averaged over six replicates, F17fG [8] | further results
1 | CC(=O)N[C@@H]1[C@@H](O)[C@H](O)[C@@H](CO)O[C@H]1O [GlcNAc, N-acetylglucosamine] | – | – | – | – | – | Kd [1]: 1 to 10 mM; Kd [2, 9]: 1 to 10 mM; Kd ([2]; dissociation constant Kd, F17aG, good fit for at least three related experiments): 1.2 mM
2 | CO[C@@H]1O[C@H](CO)[C@H](O)[C@H](O)[C@H]1O[C@@H]1O[C@H](CO)[C@@H](O)[C@H](O)[C@H]1NC(C)=O [GlcNAcβ1,2Gal, GlcNAc(β1-2)Galβ1OMe] | – | – | – | – | – | Kd [3, 10]: 2 mM; Kd [3, 11]: 1 to 10 mM; Kd [2, 12]: 4.2 mM; Kd [2, 13]: 1 to 10 mM
3 | CC(=O)N[C@H]1[C@H](O[C@@H]2[C@@H](OC[C@H]3OC(O)[C@@H](O)[C@@H](O[C@H]4O[C@H](CO)[C@@H](O)[C@H](O)[C@@H]4O[C@@H]4O[C@H](CO)[C@@H](O)[C@H](O)[C@H]4NC(C)=O)[C@@H]3O)O[C@H](CO)[C@@H](O)[C@@H]2O)O[C@H](CO)[C@@H](O)[C@@H]1O (stereo partly drawn) [GlcNAcβ1,2Manα1,6(GlcNAcβ1,2Manα1,3)Man] | – | – | – | – | – | Kd [3, 10]: 3 mM; Kd [3, 11]: 1 to 10 mM; Kd [2, 12]: 3 mM; Kd [2, 13]: 1 to 10 mM
4 | CC(=O)N[C@H]1[C@H]([C@H](O)[C@H](O)CO)OC(O)(C(=O)O)C[C@@H]1O (stereo partly drawn) [N-acetylneuraminic acid] | – | – | – | – | – | Kd [1]: > 100 mM; Kd [2, 9]: > 100 mM
5 | (GlcNAcβ1,3(GlcNAcβ1,6)GlcNAcβ1,4)GlcNAc-Sp8 | 50,775 (6,375) RFU | 8,080 (1,518) RFU | 6,148 (1,367) RFU | 20,305 (2,023) RFU | 2,992 (992) RFU | –
6 | GM1 ganglioside | – | – | – | – | – | Kd [1, 14]: > 100 mM
7 | Galβ1,4GlcNAcβ1,3Galβ1,4Glcβ-Sp0 | 3,942 (857) RFU | 919 (375) RFU | 1,090 (262) RFU | 391 (24) RFU | 663 (146) RFU | –
8 | Galβ1,4GlcNAcβ-Sp0 | 19,659 (4,594) RFU | 249 (94) RFU | 1,974 (289) RFU | 1,703 (1,070) RFU | 1,279 (106) RFU | –
9 | GlcNAcβ1,2Galβ1,3GalNAcα-Sp8 | 305 (148) RFU | 75 (35) RFU | 1,016 (239) RFU | 5,082 (4,924) RFU | 563 (125) RFU | –
10 | GlcNAcβ1,3Galβ1,3GalNAcα-Sp8 | 47,984 (3,178) RFU | 3,999 (1,481) RFU | 10,655 (880) RFU | 7,713 (866) RFU | 31,661 (2,807) RFU | –
11 | GlcNAcβ1,3Galβ1,4GlcNAcβ1,3Galβ1,4GlcNAcβ-Sp0 | 43,425 (4,065) RFU | 3,599 (772) RFU | 7,563 (2,744) RFU | 10,917 (811) RFU | 4,334 (856) RFU | –
12 | GlcNAcβ1,3Galβ1,4Glcβ-Sp0 | 54,005 (5,715) RFU | 29,181 (3,281) RFU | 13,149 (2,286) RFU | 57,013 (5,191) RFU | 26,336 (7,255) RFU | –
13 | GlcNAcβ1,4(GlcNAcβ1,6)GalNAcα-Sp8 | 38,200 (2,394) RFU | 1,680 (92) RFU | 12,960 (1,692) RFU | 4,520 (2,808) RFU | 19,830 (4,279) RFU | –
14 | GlcNAcβ1,4Galβ1,4GlcNAcβ-Sp8 | 39,794 (6,245) RFU | 1,056 (190) RFU | 13,001 (2,039) RFU | 12,499 (1,921) RFU | 7,176 (2,338) RFU | –
15 | GlcNAcβ1,6GalNAcα-Sp8 | 43,848 (4,140) RFU | 2,432 (406) RFU | 6,683 (947) RFU | 11,120 (1,871) RFU | 26,522 (11,365) RFU | –
16 | GlcNAcβ1,6Galβ1,4GlcNAcβ-Sp8 | 40,973 (6,555) RFU | 5,119 (1,633) RFU | 5,372 (746) RFU | 9,029 (1,096) RFU | 2,269 (561) RFU | –
17 | GlcNAcβ1-3Galβ1,4GlcNAcβ-Sp8 | 49,223 (5,377) RFU | 17,991 (4,401) RFU | 15,483 (1,729) RFU | 51,880 (5,023) RFU | 28,888 (6,925) RFU | –
18 | Neu5Acα2,3(Neu5Acα2,6)GalNAcα-Sp8 | 1,229 (1,162) RFU | 1,388 (1,162) RFU | 4,331 (1,760) RFU | 4,527 (4,043) RFU | 1,717 (229) RFU | –
19 | Neu5Acα2,3Galβ1,3(Neu5Acα2,6)GlcNAcβ1,3Gal β1,4Glc | – | – | – | – | – | Kd [1, 14]: > 100 mM
20 | Neu5Acα2,3Galβ1,4GlcNAcβ1,2 Man | – | – | – | – | – | Kd [3, 11]: 10 to 100 mM
